Legend:
[1] = biological target: DapE (Mycobacterium tuberculosis, UniProt P9WHS9)
[2] = biological target: Rv1723 (Mycobacterium tuberculosis, UniProt P71981)
[3] = biological target: Rv0309 (Mycobacterium tuberculosis, UniProt O07236)
Sequence of Rv0309 (O07236 19-218 limits assumed): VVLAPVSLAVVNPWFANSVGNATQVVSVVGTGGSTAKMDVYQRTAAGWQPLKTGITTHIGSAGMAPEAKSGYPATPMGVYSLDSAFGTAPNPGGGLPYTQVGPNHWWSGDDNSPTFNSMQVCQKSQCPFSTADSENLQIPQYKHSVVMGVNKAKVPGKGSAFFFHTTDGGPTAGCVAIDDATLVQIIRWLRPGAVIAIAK

Sequence of DapE (P9WHS9 whole entry, looked up): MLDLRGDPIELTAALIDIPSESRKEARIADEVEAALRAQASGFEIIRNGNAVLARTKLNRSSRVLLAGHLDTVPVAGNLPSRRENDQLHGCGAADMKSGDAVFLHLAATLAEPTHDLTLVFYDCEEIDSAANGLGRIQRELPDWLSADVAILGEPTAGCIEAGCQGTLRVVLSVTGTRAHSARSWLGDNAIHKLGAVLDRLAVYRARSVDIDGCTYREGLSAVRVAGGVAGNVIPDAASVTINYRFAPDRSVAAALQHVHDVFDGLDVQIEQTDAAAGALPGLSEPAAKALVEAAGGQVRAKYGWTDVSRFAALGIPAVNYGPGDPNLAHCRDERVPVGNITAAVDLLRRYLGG
Sequence of Rv1723 (P71981 1-415): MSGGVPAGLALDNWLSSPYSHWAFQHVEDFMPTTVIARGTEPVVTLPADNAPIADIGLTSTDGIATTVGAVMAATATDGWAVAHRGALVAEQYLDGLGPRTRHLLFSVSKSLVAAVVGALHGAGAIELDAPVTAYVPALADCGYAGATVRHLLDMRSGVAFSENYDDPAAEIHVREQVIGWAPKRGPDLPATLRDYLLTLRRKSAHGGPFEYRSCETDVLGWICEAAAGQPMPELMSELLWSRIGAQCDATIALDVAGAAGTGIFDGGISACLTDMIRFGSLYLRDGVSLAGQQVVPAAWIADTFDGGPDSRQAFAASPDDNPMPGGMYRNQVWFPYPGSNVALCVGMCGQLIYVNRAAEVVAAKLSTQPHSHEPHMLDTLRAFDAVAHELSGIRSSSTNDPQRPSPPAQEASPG

C[C@@H](O)[C@H]1C(=O)N2C(C(=O)O)=C(S[C@H]3C[C@@H](C(=O)N(C)C)N(C(=O)CCCCC[N+]4=C(/C=C/C=C/C=C5/N(C)c6ccc(S(=O)(=O)O)cc6C5(C)C)C(C)(C)c5cc(S(=O)(=O)[O-])ccc54)C3)[C@H](C)[C@H]12 [Mero-sCy5] was tested, and the “fluorescent gel labelling (SDS-PAGE)” value [1] was “Mero-sCy5 labeled all enzymes”.
In the case of CO[C@@]1(NC(=O)Cc2cccs2)C(=O)N2C(C(=O)O)=C(COC(N)=O)CS[C@@H]21 [cefoxitin], the “native MS (acyl-enzyme)” value [2] is reported as “binding to cefoxitin was only partial”.
In the case of C[C@@H](O)[C@H]1C(=O)N2C(C(=O)O)=C(S[C@@H]3CN[C@H](C(=O)N(C)C)C3)[C@H](C)[C@H]12 [meropenem], the “native MS (acyl-enzyme); competition of Mero-sCy5 labelling; inhibition of nitro” value [3] is reported as “Rv0309 partially bound meropenem”.
